Key:
[1] = target: CLK2 kinase (Homo sapiens, UniProt P49760); assay: CLK2 kinase activity assay (Z-lyte FRET); assay type: biochemical; conditions: Z-lyte Ser/Thr 6 peptide, 60 μM ATP, 1 h at room temperature;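 note: FRET read-out as coumarin to fluorescein emission ratio, unphosphorylated peptide as 0% and phosphorylated peptide as 100% controls, duplicate reactions, non-linear regression fit of dose-response curves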
[2] = target: CLK3 kinase (Homo sapiens, UniProt P49761); assay: CLK3 kinase activity assay (Z-lyte FRET); assay type: biochemical; conditions: Z-lyte Ser/Thr 18 peptide, 156 μM ATP, 1 h at room temperature;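 note: kinase activity read as coumarin/fluorescein emission ratio by FRET, unphosphorylated peptide as 0% and phosphorylated peptide as 100% control, values from non-linear regression of dose-response curves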
[3] = test system: primary human mesenchymal stem cells (hMSCs); assay: Chondrogenesis screening using primary human mesenchymal stem cells; assay type: cell-based; conditions: Homo sapiens, Mesenchymal stem cells, hMSC chondrogenesis; for Emax: maximum activity relative to TGF-β3 (10 ng/mL) positive control, read-out: Max. Activity as % TGF-β3 activity; for EC50: concentration required to induce 50% levels of chondrogenesis with TGF-β3 as positive control, read-out: Conc (nM) of 50% TGF-β3 activity
Method in brief: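 Primary hMSCs at passage 3–6 were treated across compound concentrations, with TGF-β3 as positive control. Chondrogenic nodule area per well was normalized to 3 DMSO wells on the same plate (fold over DMSO, 2–3 replicates). EC50, maximum activity and the dose reaching it were derived.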

[4] = test system: Wnt pathway activity (SW480 colon carcinoma cells stably expressing the Sp5-Luc reporter); assay: Wnt pathway activity screening assay (Sp5-Luc reporter gene assay); conditions: Homo sapiens, SW480, Table 4; SW480 cells stably expressing Sp5-Luc reporter, 10-point dose-response from 10 μM, 36 to 48 hours

CLK3 kinase, sequence (P49761 whole entry): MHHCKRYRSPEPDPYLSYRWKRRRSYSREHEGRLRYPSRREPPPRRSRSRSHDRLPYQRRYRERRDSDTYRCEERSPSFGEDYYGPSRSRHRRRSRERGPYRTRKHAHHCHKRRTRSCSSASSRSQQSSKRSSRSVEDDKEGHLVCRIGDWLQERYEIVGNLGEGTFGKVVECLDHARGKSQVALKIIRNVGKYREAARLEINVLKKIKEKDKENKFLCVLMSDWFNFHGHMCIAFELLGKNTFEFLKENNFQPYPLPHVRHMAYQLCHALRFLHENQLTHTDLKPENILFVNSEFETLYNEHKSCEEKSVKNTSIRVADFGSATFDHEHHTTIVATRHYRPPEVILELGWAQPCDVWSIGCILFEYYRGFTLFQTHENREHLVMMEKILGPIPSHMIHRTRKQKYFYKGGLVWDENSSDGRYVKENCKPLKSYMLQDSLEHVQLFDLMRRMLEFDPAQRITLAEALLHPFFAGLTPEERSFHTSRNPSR
CLK2 kinase, sequence (P49760 whole entry): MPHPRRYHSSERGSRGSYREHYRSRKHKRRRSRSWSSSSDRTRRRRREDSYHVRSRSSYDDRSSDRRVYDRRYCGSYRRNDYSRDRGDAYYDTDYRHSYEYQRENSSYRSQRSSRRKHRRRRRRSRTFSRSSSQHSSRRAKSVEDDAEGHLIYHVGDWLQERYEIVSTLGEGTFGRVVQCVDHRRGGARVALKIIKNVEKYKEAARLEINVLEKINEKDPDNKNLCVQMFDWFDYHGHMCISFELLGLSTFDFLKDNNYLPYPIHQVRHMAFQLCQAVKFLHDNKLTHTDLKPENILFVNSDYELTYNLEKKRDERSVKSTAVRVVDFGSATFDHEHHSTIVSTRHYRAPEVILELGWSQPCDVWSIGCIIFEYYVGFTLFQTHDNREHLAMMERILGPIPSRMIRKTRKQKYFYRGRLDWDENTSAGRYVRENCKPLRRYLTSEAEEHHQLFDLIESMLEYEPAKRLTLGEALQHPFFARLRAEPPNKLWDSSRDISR

SMILES | EC50 [1] [µM] | EC50 [2] [µM] | Emax [3] [%] | EC50 [4] [µM] | EC50 [3] [nM]
CN(C)Cc1cncc(-c2ccc3[nH]nc(-c4cc5cccnc5[nH]4)c3n2)c1 [compound 443] | 0.007 | 0.566 | 37 | > 10 | 
c1ccc2[nH]c(-c3n[nH]c4ncc(-c5cncc(CN6CCCC6)c5)cc34)cc2c1 [compound 444] | 0.009 | 0.362 | 97.6 | 1.41 | 10
FC1(F)CCN(Cc2cncc(-c3cc4c(-c5cc6cccnc6[nH]5)n[nH]c4cn3)c2)C1 [compound 445] | 0.005 | 0.203 | 45.3 | 1.35 | 
FC1(F)CCN(Cc2cncc(-c3ccc4[nH]nc(-c5cc6cnccc6[nH]5)c4n3)c2)C1 [compound 446] | 0.001 | 0.023 | 134 | 0.045 | 300
FC1(F)CCN(Cc2cncc(-c3ccc4[nH]nc(-c5cc6cccnc6[nH]5)c4n3)c2)C1 [compound 447] | 0.002 | 0.037 | 134 | 0.104 | 100
c1cc2[nH]c(-c3n[nH]c4ccc(-c5cncc(CN6CCCCC6)c5)cc34)cc2cn1 [compound 448] | 0.003 | 0.028 | 122 | 0.685 | 
c1cnc2[nH]c(-c3n[nH]c4ccc(-c5cncc(CN6CCCCC6)c5)cc34)cc2c1 [compound 450] | 0.003 | 0.085 | 50.8 | 1.67 | 
c1cc2[nH]c(-c3n[nH]c4ncc(-c5cncc(CN6CCCCC6)c5)cc34)cc2cn1 [compound 451] | 0.005 | 0.053 | 39.7 | 1.54 | 
c1cc2cc(-c3n[nH]c4ccc(-c5cncc(OCCN6CCCC6)c5)cc34)[nH]c2cn1 [compound 452] | 0.002 | 0.068 | 44.6 | 1.85 | 
c1cnc2[nH]c(-c3n[nH]c4ccc(-c5cncc(OCCN6CCCC6)c5)cc34)cc2c1 [compound 453] | 0.002 | 0.246 | 42.7 | 3.29 | 
Nc1cncc(-c2ccc3[nH]nc(-c4cc5c(N6CCCCC6)ccnc5[nH]4)c3c2)c1 [compound 455] | 0.005 | 0.11 | 130 | 0.604 | 
Nc1cncc(-c2cc3c(-c4cc5c(N6CCCCC6)cncc5[nH]4)n[nH]c3cn2)c1 [compound 456] | 0.002 | 0.094 | 93.5 | 2.96 | 30
CC(=O)Nc1cncc(-c2ccc3[nH]nc(-c4cc5c(N6CCCCC6)nccc5[nH]4)c3c2)c1 [compound 457] | 0.001 | 0.052 | 244 | 0.445 | 10
CCCCC(=O)Nc1cncc(-c2ccc3[nH]nc(-c4cc5c(N6CCCCC6)cccc5[nH]4)c3n2)c1 [compound 458] | 0.02 | 2.19 | 68.6 | 0.572 | 100
CCCCC(=O)Nc1cncc(-c2ccc3[nH]nc(-c4cc5c(N6CCCCC6)nccc5[nH]4)c3n2)c1 [compound 459] | 0.013 | 0.269 | 54.5 | 4.05 | 30
O=C(Nc1cncc(-c2cnc3[nH]nc(-c4cc5c(N6CCCCC6)nccc5[nH]4)c3c2)c1)C1CC1 [compound 460] | 0.008 | 0.231 | 42.5 | 3.85 | 
O=C(Nc1cncc(-c2cc3c(-c4cc5c(N6CCCCC6)nccc5[nH]4)n[nH]c3cn2)c1)C1CCC1 [compound 461] | 0.019 | 0.342 | 42.4 | 4.07 | 
CC(C)Nc1cncc(-c2cnc3[nH]nc(-c4cc5c(N6CCCCC6)nccc5[nH]4)c3c2)c1 [compound 463] | 0.013 | 1.28 | 33.6 | 3.41 | 
